Data published in publication PMC8584931 (International Journal of Molecular Sciences, 2021).

Legend:
HT-29 cells = assay: cells; settings: Homo sapiens, HT-29, 48 h, read-out: HT-29 IV (intermediate value)
Method: (§1) Cell viability was evaluated by MTT assay.
(§2) It is necessary for this IV to have a method of comparison for the combination of experiments.
(§3) Human colorectal cancer HT-29 and prostate cancer PC-3 cell lines were obtained from the American Type Culture Collection (ATCC; Manassas, VA, USA) and maintained according to ATCC’s recommendations at 37 °C and 5% CO2 in appropriate medium supplemented with 10% foetal bovine serum, 100 U/mL penicillin G and 100 µg/mL streptomycin. Cells were maintained in the logarithmic growth phase at all times. The media were changed every 2 days and trypsinised with 0.25% trypsin–EDTA. A total of 100 µL of HT-29 cells (7500 cells/well) or PC-3 cells (5000 cells/well) were seeded in 96-well plates and allowed to adhere overnight before drug exposure. After 24 h, the cell culture media were replaced with 100 µL of drug-containing media. […]
(§4) The IV value was first determined for each drug alone in HT-29 and PC-3 cells. […] Both Drug A and Drug B concentrations were variable, and the combined effects of equipotent concentrations (fixed ratio) of the IV values for each drug were evaluated.
(§5) For the MTT protocol, after drug treatment, the cell medium was removed and 100 µL/well of MTT solution (0.5 mg/mL in PBS) was added. […] Absorbance was measured at 570 nm in an automated microplate reader (Tecan Infinite M200, Tecan Group Ltd., Männedorf, Switzerland). […]

PC-3 cells = assay: cells; settings: Homo sapiens, PC-3, 48 h, read-out: PC-3 IV (intermediate value)
Method: as §1, §2, §3, §4, §5

IC50 (HT-29 cells) [µM]	IC50 (PC-3 cells) [µM]	SMILES
2.58	–	O=c1[nH]cc(F)c(=O)[nH]1 [5-FU, 5-fluorouracil]
–	0.01	CC(=O)O[C@H]1C(=O)[C@@]2(C)[C@H]([C@H](OC(=O)c3ccccc3)[C@]3(O)C[C@H](OC(=O)[C@H](O)[C@@H](NC(=O)c4ccccc4)c4ccccc4)C(C)=C1C3(C)C)[C@]1(OC(C)=O)CO[C@@H]1C[C@@H]2O [PTX, paclitaxel]
